The values below come from ChEMBL document CHEMBL1201862, “PubChem BioAssay data set” (2004).

Test [1] is described as follows: Luminescence-based cell-based high throughput dose response assay to identify activators of the DAF-12 from the parasite S. stercoralis (ssDAF-12). Type of test: functional.
The target of test [2] is T1, Oxysterols receptor LXR-beta (Homo sapiens, UniProt P55055).
T1 sequence (P55055 whole entry): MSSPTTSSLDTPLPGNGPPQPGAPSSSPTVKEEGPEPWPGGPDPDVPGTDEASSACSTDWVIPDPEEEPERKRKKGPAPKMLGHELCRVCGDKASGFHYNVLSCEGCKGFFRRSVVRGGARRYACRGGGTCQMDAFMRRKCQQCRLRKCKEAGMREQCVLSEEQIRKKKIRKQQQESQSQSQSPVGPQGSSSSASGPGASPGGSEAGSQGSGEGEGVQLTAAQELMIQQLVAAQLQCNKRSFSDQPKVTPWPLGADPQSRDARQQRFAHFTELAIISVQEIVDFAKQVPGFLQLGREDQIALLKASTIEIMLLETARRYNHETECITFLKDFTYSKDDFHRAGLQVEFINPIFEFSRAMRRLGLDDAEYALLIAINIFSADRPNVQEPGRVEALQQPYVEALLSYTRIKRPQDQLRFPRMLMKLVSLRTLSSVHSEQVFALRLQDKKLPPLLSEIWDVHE
Put plainly: LXR agonists, Gal4 luciferase reporter, dose response, counter-screen for ssDAF-12 agonist project, cell-based, luminescence, HEK293, S. stercoralis campaign (AID 720737). It is filed as functional. The following applies: read-out: IC50 (the source's name). (Reporter assays use an easily measured gene product as a stand-in for the process of interest.)

Test [3] deals with T1, Oxysterols receptor LXR-beta. It is filed as functional, cell-based.
Test [4] is described as follows: inhibition of ADAM10 peptide cleavage – biochemical, FRET peptide substrate, recombinant human ADAM10, selectivity assay for ADAM17 exosite inhibitor project, dose response (AID 743259).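 Note: ADAM10 enzyme cleaving a FRET peptide substrate.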
Test [5] has as its target Disintegrin and metalloproteinase domain-containing protein 17 (Homo sapiens, UniProt P78536). The test can be described thus: exosite inhibitors of ADAM17, dose response, biochemical (AID 743260).
Another test has as its target Major prion protein (Homo sapiens, UniProt P04156). Type of test: functional, cell-based.
Test [6] is described as follows: OVCAR8 cell viability loss – plate reader, dry powder samples, PAX8 project, dose response (AID 743197). It is filed as functional, cell-based. The following applies: OVCAR-8.
A short description of test [7]: general cell-killing toxicity readout – plate reader, dry powder samples, cytotoxicity control for PAX8 inhibitor project, dose response (AID 743021). Type of test: functional, cell-based.
The nature of test [8]: IGROV1 cell killing – plate reader, dry powder samples, PAX8 inhibitor project, dose response (AID 743043). It is filed as functional, cell-based. To be noted: IGROV-1.
In the next test the target is Paired box protein Pax-8 (Homo sapiens, UniProt Q06710). The test can be described thus: PAX8 transcriptional activity inhibition in RMG-I – RMG-I cells, luciferase, cherry-pick, dose response (AID 687027).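 Note: luciferase reporter driven by Pax8 target thyroperoxidase promoter measured by SteadyGlo luminescence.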 It is filed as functional, cell-based.
The nature of test [9]: A2780 cell killing – plate reader, dry powder samples, cytotoxicity control, dose response (AID 743046). Type of test: functional, cell-based.
The nature of test [10]: OVCAR-3 cell viability loss – plate reader, dry powder samples, PAX8 inhibitor project, dose response (AID 743044). Type of test: functional, cell-based.
A further test addresses Ion channel NompC (Danio rerio, UniProt Q7T1G6). Put plainly: Fluorescence counterscreen assay for TRPML3 agonists: dose response cell-based high-throughput screening assay to identify agonists of the transient receptor potential channel N1 (TRPN1). [Related pubchem assays: 1526, 1424, 1448 ]. It is filed as functional. On the technique in general: The purpose of a counterscreen is to sort out artefacts and off-target activity.

Test [11] in a line: loss of viability in HepG2 cells – cell-based, CellTiter-Glo, cherry-picked, cytotoxicity control for Shn3 inhibitor project, dose response (AID 624134). Type of test: functional. Background: Cellular ATP, detected with luciferase, serves as a proxy for viable cell number.
Test [12] is described as follows: reduction of Shn3 3'UTR-driven luciferase in osteoblasts – cell-based, Clone20 osteoblasts, firefly luciferase, cherry-picked, dose response (AID 624132).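 Note: firefly luciferase luminescence from reporter carrying the Shn3 3'UTR in osteoblasts.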 Type of test: functional.
The next test deals with T2, Mucolipin-3 (Homo sapiens, UniProt Q8TDD5).
T2 sequence (Q8TDD5 whole entry): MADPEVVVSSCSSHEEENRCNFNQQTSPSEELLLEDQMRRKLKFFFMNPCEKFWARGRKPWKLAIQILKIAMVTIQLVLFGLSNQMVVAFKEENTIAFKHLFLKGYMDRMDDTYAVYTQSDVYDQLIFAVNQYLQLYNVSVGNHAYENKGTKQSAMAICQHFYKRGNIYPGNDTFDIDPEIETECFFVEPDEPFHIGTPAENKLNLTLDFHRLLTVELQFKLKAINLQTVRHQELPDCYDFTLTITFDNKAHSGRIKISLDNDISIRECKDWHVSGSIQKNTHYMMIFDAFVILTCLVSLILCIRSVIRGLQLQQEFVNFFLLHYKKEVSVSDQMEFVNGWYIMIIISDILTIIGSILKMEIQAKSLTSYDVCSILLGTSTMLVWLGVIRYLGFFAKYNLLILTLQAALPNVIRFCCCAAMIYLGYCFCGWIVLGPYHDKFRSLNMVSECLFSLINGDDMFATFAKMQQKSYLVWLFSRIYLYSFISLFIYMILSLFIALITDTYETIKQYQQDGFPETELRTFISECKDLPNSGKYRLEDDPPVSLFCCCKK
Put plainly: Dose response cell-based high-throughput screening assay for agonists of the transient receptor potential channel ML3 (TRPML3). [Related pubchem assays: 1526, 1424, 1448 ]. It is filed as functional.

The nature of test [13]: Shn3 3'UTR reporter signal decrease – cell-based, Clone20 osteoblasts, firefly luciferase, cherry-pick, set 2, Schnurri-3 inhibitor project, dose response (AID 720490).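 Note: actives lower the luminescence signal as inhibitors.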 It is filed as functional.
Test [14] concerns the target Endoplasmic reticulum aminopeptidase 1 (Homo sapiens, UniProt Q9NZ08). The test can be described thus: inhibition of human ERAP1 enzyme activity – biochemical, cherry-pick, set 2, plate reader, dose response (AID 743314).

Calls of active or inactive are those of the source. Bounds are passed on as bounds.

As to `Oc1ccccc1-c1cc(-c2ccc(Cl)cc2)[nH]n1`, the IC50 (commonly the concentration that inhibits the measured activity by half) in test [1] is > 67.5 µM (inactive). The EC50 in test [2] and in test [3] was > 67.5 µM (inactive) in each case.
For the compound `Cc1ccccc1-c1nnn(Cc2ccc(F)cc2Cl)n1`, the IC50 in test [4] and in [5] was > 69.5 µM (inactive) in each case.
As to `Brc1cc(Br)c2nc3c(cc2c1)CCC3`, the IC50 was > 138 µM (inactive) in the test “cells” and 5.89 µM (active) at Major prion protein.
`COc1ccc(-c2n[nH]c(=S)n2-c2ccc(Br)cc2)cc1OC`: the IC50 in [5] was 41.6 µM (inactive).
Turning to `O=C(C1CCC1)N1CC(=O)N2[C@H](CO)[C@H](c3ccc(C#CCc4ccccc4)cc3)[C@H]2C1`, the AC50 (commonly the concentration giving half of the maximal activity seen) in test [6] was 20.4 µM (active); in test [7], 48 µM (active); in [8], 42.6 µM (active); at Paired box protein Pax-8, 24.3 µM (active); in test [9], 0.324 µM (active); in test [10], 11.4 µM (active).
Take `COc1ccc(NS(=O)(=O)c2ccc(OC)c(N(C)S(=O)(=O)c3ccc(Cl)cc3)c2)cc1`: the EC50 on Ion channel NompC is recorded as > 29.9 µM (not active); on Mucolipin-3 it was > 9.99 µM (not active). Moreover, the AC50 in [11] is 38.7 µM (active); in [12], 2.92 µM (active); in test [13], 3.54 µM (active).
For the compound `O=c1ccc2cc(OC3O[C@H](CO)[C@@H](O)[C@H](O)[C@H]3O)c(O)cc2o1` (stereo not given in full), the AC50 in [14] was 2.24 µM (active).
